Experimental data taken from patent publication US8283344B2, “Method of treating inherited severe neutropenia” (Merck & Co., Inc., priority 2007, dated 2012).

What was measured:
[1] = biological target: T1, Human Polymorphonuclear Leukocyte Elastase (Homo sapiens, UniProt P08246); assay: Inhibition of human polymorphonuclear leukocyte elastase via hydrolysis of Boc-AAPAN or Boc-AAPVN; assay type: biochemical; details: second order rate constant for inactivation of the enzyme; crude human PMN extract, pH 7.5; to the nearest thousand; read-out: Kobs/[I]
T1 construct: Crude extract of human polymorphonuclear leukocytes (PMN) containing elastase activity; from tissue; host or cells: human polymorphonuclear leukocytes (crude extract)
T1 sequence (P08246 30-267): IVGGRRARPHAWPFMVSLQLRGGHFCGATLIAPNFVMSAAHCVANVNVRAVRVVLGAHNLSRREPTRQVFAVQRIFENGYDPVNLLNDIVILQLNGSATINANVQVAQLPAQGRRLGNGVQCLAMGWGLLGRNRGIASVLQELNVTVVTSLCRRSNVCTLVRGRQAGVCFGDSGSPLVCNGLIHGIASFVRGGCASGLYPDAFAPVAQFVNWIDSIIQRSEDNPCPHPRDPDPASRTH
Experimental: Enzyme Assays for the Inhibition of Human Polymorphonuclear Leukocyte Elastase Via Hydrolysis of N-t-Boc-alanyl-alanyl-prolylalanine-p-nitroanilide (Boc-AAPAN) or N-t-Boc-alanyl-[…] (Boc-AAPVN) Reagent: • 0.05M TES (N-tris[hydroxymethyl]methyl-2-mino-ethanesulfonic acid) Buffer, pH 7.5. 0.2 mM Boc-AAPAN or Boc-AAPVN.
To prepare substrate, the solid was first dissolved in 10.0 ml DMSO. Buffer at pH 7.5 was then added to a final volume of 100 ml.
Crude extract of human polymorphonuclear leukocytes (PMN) containing elastase activity.
Inhibitors (azetidinones) to be tested dissolved in DMSO just before use.
To 1.0 ml of 0.2 mM Boc-AAPAN in a cuvette, 0.01-0.1 ml of DMSO with or without inhibitor was added. After mixing, a measurement was taken at 410 mµ to detect any spontaneous hydrolysis due to presence of test compound. 0.05 Milliliters of PMN extract was then added and the ΔOD/min at 410 mµ was measured and recorded. Beckman model 35 spectrophotometer was used.
Results were expressed to the nearest thousand k obs/I which is the second order rate constant in per mole per second for inactivation of the enzyme.
The elastase activity in the crude PMN extract may vary from one preparation to another. A control of each new batch is run, and the volume added in the assay procedure is adjusted according to activity.

[2] = system: control cells expressing normal elastase; assay: Growth rate of control cells expressing normal elastase; assay type: cell-based, human; details: inhibition of NE activity
Description: (§1) We have established a model of SCN with doxycycline-regulated expression of del.145-152 mutant NE in human promyelocytic tet-off HL-60 cells. The ratio of normal-to-mutant NE products is approximately 1:1, which is expected in SCN patients with heterozygous mutation. […] The reduced cell growth and accelerated apoptosis were also observed in response to mutNE expression. Thus, this cellular model of SCN appears to closely recapitulate the human phenotype.

[3] = system: HL-60 cells expressing the del.145-152 mutNE; assay: Cell growth and myeloid differentiation of HL-60 cells expressing del.145-152 mutNE; assay type: cell-based, human; details: HL-60 cells expressing del.145-152 mutNE treated with compound
Description: as §1

neutrophil elastase (NE) = biological target: T2, neutrophil elastase (NE) (Homo sapiens, UniProt P08246, DEL174-181); assay: NE activity in cellular SCN model (tet-off HL-60 cells expressing del.145-152 mutant NE); assay type: cell-based; details: human promyelocytic tet-off HL-60 cells
T2 construct: The ratio of normal-to-mutant NE products is approximately 1:1; expressed in transfected cells; host or cells: human promyelocytic tet-off HL-60 cells
T2 sequence (P08246 with tags, fused parts or gaps DEL174-181): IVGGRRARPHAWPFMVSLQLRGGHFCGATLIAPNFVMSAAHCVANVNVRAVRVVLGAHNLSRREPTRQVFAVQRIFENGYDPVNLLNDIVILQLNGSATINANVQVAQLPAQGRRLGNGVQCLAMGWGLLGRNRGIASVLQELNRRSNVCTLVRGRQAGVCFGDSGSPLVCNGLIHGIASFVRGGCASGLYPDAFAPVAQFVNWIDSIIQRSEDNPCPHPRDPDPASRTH
T2 sequence (P08246 30-267): T1 sequence (P08246 30-267)
Description: as §1

Row | Compound | kinact/KI [1] [M⁻¹ s⁻¹] | further results
1 | CCC[C@@H](NC(=O)C1C(=O)C(CC)(CC)[C@@H]1Oc1ccc(C(=O)N2CCN(CC)CC2)cc1)c1ccc(C)cc1 (stereo partly shown) [Compound 252] | 2.32e+06 | 
2 | CCC[C@@H](NC(=O)C1C(=O)C(CC)(CC)[C@@H]1Oc1ccc(C(=O)N2CCN(C)CC2)cc1)c1ccc(C)cc1 (stereo partly shown) [Compound 242] | 1.7e+06 | growth rate of control cells [2]: did not reduce the growth rate; cell growth [3]: complete restoration of cell growth; myeloid differentiation [3]: increased myeloid differentiation; inhibition of the NE activity (neutrophil elastase (NE)): more than 80%
3 | CCC[C@@H](NC(=O)C1C(=O)C(CC)(CC)[C@@H]1Oc1ccc(C(=O)N2CCNCC2)cc1)c1ccc(C)cc1 (stereo partly shown) [Compound 247] | 1.1e+06 | 
4 | CCC[C@@H](NC(=O)C1C(=O)C(CC)(CC)[C@@H]1Oc1ccc(C(=O)N2CCN(Cc3ccccc3)CC2)cc1)c1ccc(C)cc1 (stereo partly shown) [Compound 246] | 5.17e+06 | 
5 | CCC[C@@H](NC(=O)C1C(=O)C(CC)(CC)[C@@H]1Oc1ccc(C(=O)N2CCN(CC(C)C)CC2)cc1)c1ccc(C)cc1 (stereo partly shown) [Compound 249] | 2.48e+06 | 
6 | CCC[C@@H](NC(=O)C1C(=O)C(CC)(CC)[C@@H]1Oc1ccc(C(=O)N2CCN(C(C)C)CC2)cc1)c1ccc(C)cc1 (stereo partly shown) [Compound 248] | 2.39e+06 | 
7 | CCC[C@@H](NC(=O)C1C(=O)C(CC)(CC)[C@@H]1Oc1ccc(C(=O)N2CCN(CCC)CC2)cc1)c1ccc(C)cc1 (stereo partly shown) [Compound 253] | 1.77e+06 | 
8 | CCC[C@@H](NC(=O)C1C(=O)C(CC)(CC)[C@@H]1Oc1ccc(C(=O)N2CCN(C3CC3)CC2)cc1)c1ccc(C)cc1 (stereo partly shown) [Compound 256] | 3.59e+06 | 

More lines, main results first:

Row | kinact/KI [1] [M⁻¹ s⁻¹] | Compound | further results
9 | 2.14e+06 | CCC[C@@H](NC(=O)C1C(=O)C(CC)(CC)[C@@H]1Oc1ccc(C(=O)N2CCN(c3ncccn3)CC2)cc1)c1ccc(C)cc1 (stereo partly shown) [Compound 254] | 
10 | 5.28e+06 | CCC[C@@H](NC(=O)C1C(=O)C(CC)(CC)[C@@H]1Oc1ccc(C(=O)N2CCN(c3ccccc3)CC2)cc1)c1ccc(C)cc1 (stereo partly shown) [Compound 245] | 
11 | 2.45e+06 | CCC[C@@H](NC(=O)C1C(=O)C(CC)(CC)[C@@H]1Oc1ccc(C(=O)N2CCN(c3cccc(Cl)c3)CC2)cc1)c1ccc(C)cc1 (stereo partly shown) [Compound 244] | 
12 | 7.49e+06 | CCC[C@@H](NC(=O)C1C(=O)C(CC)(CC)[C@@H]1Oc1ccc(C(=O)N2CCN(c3ccc(F)cc3)CC2)cc1)c1ccc(C)cc1 (stereo partly shown) [Compound 243] | 
